# Measured values as given in US20220008567A1, “LIQUIDLY INJECTABLE, SELF-STABILIZING BIOPOLYMERS FOR THE DELIVERY OF RADIONUCLIDE” (priority 2018, published 2022).
# Key:
# [1] = test system: BxPc3, MIA PaCa-2 and AsPc-1 pancreatic cells; assay: In vitro cytotoxicity by MTS across pancreatic cell lines; settings: FIG. 5
# Description: (§1) In vitro cytotoxicity assessment. All cell lines were cultured in monolayers in sterile, vented culture flasks (Corning). Cells were passaged, collected, and then counted with 0.4% Trypan Blue (Thermo Fisher Scientific). Cells were then formulated in their respective media and plated in 96-well plates at 5,000 cells per well in 100 μL. After allowing cells to incubate at 37° C. for 12 h, drugs were then added to the wells. Each drug was formulated at the highest concentration in the cell media and then serially diluted. A PTX equivalent concentration between 10-4 and 10-12 M of each construct was plated in quadruplicate and allowed to incubate for 72 h. 20 μL of CellTiter 96® AQueoous One solution (Promega) was then added to each well. After 1.5 h, the absorbance of each plate was read at 490 nm and normalized to untreated cells to determine the relative cell survival. The half effective concentration (EC50) was calculated as the inflection between the curve's maxima and minima.
# BxPc3 cells [2] = assay: MTS cell proliferation assay (in vitro cytotoxicity)
# Description: as §1
# BxPc3 cells [3] = assay: Cell cycle distribution by propidium iodide flow cytometry (G2/M arrest); assay type: cell-based, human; settings: 1 nM of equivalent paclitaxel
# Description: As radiation sensitization is driven by late G2/M arrest, the effects of paclitaxel on cell cycle progression were examined. BxPc3 cells were treated in vitro with 1 nM of equivalent paclitaxel, stained with propidium iodide to measure relative DNA quantities, and analyzed by flow cytometry to assess the cell cycle distribution over time.
smiles,measurement,setting,value
"CC(=O)O[C@H]1C(=O)[C@@]2(C)[C@H]([C@H](OC(=O)c3ccccc3)[C@]3(O)C[C@H](OC(=O)[C@H](O)[C@@H](NC(=O)c4ccccc4)c4ccccc4)C(C)=C1C3(C)C)[C@]1(OC(C)=O)CO[C@@H]1C[C@@H]2O [PTX, paclitaxel]",cytotoxicity in each cell line,[1],nanomolar cytotoxicity
same,in vitro cytotoxicity,BxPc3 cells [2]; FIG. 4A,nanomolar
same,EC50,"BxPc3 cells [2]; Homo sapiens, BXPC-3, 72 h, read-out: relative half-inhibitory concentration (EC50)",3.7 nM
same,peak proportion of cell population in G2/M phase,BxPc3 cells [3],37.9%
same,time to maximum proportion of G2/M cells,BxPc3 cells [3],12 h
